From patent US20260060989A1, “Charged Ion Channel Blockers And Methods For Use” (Nocion Therapeutics, Inc., priority 2024, published 2026)

Assays:
NaV1.7 [1] = biological target: T1, NaV1.7 (Homo sapiens, UniProt Q15858); assay: Whole cell patch clamp, external block of NaV1.7 current (compound in external solution); assay type: cell-based; settings: test concentration 10 μM; compound applied in external solution for 5 minutes, 5 Hz stimulation; read-out: NaV1.7 Extracellular Inhibition
T1 construct: expressed in transfected cells; host or cells: Tetracycline-inducible cell line kept under hygromycin and blasticidin selection
Experimental: (§1) NaV1.7 was expressed upon induction with tetracycline. Cells were cultured in DMEM containing 10% dialyzed Fetal Bovine Serum (VWR, Radnor, PA), 1% Glutamax (VWR, Radnor, PA), 1% Penicillin-Streptomycin (VWR, Radnor, PA), 100 mg/L Hygromycin (Thermo Fisher Scientific, Waltham, MA and 5 mg/L Blasticidin (Alfa Aesar, Haverhill, MA). Cells were grown and maintained at 37° C. in a humidified environment containing 10% CO2 in air. Cells were detached from the culture flask for passage and harvested using 0.05% Trypsin-EDTA (Thermo Fisher Scientific, Waltham, MA). To induce NaV1.7, cells were induced with tetracycline (0.1-1 μg/mL, IBI Scientific, Peosta, IA) the day before recording and plated onto 24-well plates. Cells were washed with DPBS (VWR, Radnor, PA), trypsinized and then triturated five times in 10 mL of growth media to break apart cell aggregates. […]
(§2) Once the recording was started, the voltage protocol was run at 30 second intervals for 5 minutes to get a stable baseline. […] Currents were recorded using PatchMaster software with Heka EPC10 (HEKA Electronics, Lambrecht, Germany). […]
(§3) The data was plotted using the Patchmaster software (HEKA Electronics, Lambrecht, Germany) and analyzed by plotting the minimum current during the voltage step to −20 mV (peak inward current) as a function of time. […]

NaV1.7 [2] = biological target: T1, NaV1.7; assay: Whole cell patch clamp, internal block of NaV1.7 current (compound in intracellular solution); assay type: cell-based; settings: test concentration 0.32 μM; text says intracellular inhibition (compound in internal solution), 5 Hz stimulation; read-out: NaV1.7 Extracellular Inhibition
Experimental: as §1, §2, §3

T1 sequence (Q15858 whole entry): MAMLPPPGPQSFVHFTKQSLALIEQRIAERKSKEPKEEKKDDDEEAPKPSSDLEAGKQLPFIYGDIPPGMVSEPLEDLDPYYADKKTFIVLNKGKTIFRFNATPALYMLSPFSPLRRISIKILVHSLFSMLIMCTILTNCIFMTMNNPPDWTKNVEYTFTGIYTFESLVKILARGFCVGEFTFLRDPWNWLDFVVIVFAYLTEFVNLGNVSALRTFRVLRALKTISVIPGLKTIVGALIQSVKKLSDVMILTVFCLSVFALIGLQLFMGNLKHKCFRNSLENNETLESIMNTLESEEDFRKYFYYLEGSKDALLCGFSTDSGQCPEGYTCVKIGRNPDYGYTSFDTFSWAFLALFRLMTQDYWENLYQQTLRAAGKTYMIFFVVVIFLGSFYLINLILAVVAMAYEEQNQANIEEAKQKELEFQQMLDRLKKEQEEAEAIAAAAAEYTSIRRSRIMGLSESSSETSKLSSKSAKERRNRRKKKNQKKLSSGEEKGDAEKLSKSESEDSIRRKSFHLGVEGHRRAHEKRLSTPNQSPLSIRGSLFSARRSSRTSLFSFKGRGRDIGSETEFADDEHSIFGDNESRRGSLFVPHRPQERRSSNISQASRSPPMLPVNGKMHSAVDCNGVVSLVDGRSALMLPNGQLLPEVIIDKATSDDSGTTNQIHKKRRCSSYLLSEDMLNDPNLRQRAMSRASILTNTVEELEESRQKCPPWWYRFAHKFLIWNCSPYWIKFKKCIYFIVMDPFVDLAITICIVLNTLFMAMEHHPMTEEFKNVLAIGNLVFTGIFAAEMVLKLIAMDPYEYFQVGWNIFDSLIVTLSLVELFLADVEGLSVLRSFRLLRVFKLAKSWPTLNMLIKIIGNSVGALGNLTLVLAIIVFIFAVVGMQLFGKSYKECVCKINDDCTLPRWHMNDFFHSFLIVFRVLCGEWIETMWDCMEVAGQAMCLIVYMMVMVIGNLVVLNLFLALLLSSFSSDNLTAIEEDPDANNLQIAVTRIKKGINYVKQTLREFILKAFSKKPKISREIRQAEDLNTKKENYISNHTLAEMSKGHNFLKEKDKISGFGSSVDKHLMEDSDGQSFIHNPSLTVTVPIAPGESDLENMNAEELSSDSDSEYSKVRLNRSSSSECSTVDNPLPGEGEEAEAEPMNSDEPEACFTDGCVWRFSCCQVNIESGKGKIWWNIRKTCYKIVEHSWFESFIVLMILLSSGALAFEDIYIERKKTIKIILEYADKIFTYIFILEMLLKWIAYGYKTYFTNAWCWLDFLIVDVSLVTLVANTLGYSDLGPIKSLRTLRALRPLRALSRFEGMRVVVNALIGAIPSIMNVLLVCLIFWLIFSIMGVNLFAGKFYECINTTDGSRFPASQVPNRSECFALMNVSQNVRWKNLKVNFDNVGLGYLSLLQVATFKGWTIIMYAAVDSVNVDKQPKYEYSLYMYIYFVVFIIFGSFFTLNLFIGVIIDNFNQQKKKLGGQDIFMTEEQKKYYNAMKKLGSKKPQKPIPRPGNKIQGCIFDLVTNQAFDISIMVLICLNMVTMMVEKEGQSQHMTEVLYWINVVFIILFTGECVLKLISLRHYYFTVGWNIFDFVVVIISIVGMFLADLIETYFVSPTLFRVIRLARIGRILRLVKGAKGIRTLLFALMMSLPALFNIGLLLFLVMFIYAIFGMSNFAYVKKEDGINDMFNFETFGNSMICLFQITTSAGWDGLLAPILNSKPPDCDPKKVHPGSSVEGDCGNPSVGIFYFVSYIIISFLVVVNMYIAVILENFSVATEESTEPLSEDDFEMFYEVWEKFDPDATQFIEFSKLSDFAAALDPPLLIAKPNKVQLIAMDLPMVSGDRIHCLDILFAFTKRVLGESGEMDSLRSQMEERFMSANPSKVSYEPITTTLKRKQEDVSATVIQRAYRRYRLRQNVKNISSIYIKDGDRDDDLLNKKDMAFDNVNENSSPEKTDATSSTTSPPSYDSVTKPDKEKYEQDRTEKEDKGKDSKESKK

inhibition at 10 µM (NaV1.7 [1]): 40 to 70%
inhibition at 0.32 µM (NaV1.7 [2]): > 70%
SMILES: Cc1cccc(C)c1NC(=O)C[N+]1(CCOC(=O)c2ccccc2Cl)CCCCCC1 [Compound 1, 1-(2-((2-chlorobenzoyl)oxy)ethyl)-1-(2-((2,6-dimethylphenyl)amino)-2-oxoethyl)azepan-1-ium bromide]
